Reference: paper PMC6137088, “The Role of Outer Membrane Proteins and Lipopolysaccharides for the Sensitivity of Escherichia coli to Antimicrobial Peptides” (Frontiers in Microbiology, 2018)
Where no end group is shown, it is not given here.

Columns and labels:
E. coli ATCC25922 ΔwaaC = type: cell-based, Escherichia coli; conditions: Table 6, triplicates
Text: (§1) The E. coli strains 470, F632, F653 and F2513 were kindly provided by Prof. H. Brade and Prof. S. Muller-Loennies, Research Center Borstel, Leipniz-Center for Medicine and Biosciences, Germany. E. coli BW25113 (CGSC#:7636), a derivative of F^−, λ^− E. coli K12 strain BD792 is the wild-type strain which was used in the generation of the KEIO collection and ordered from the Coli Genetic Stock Centre (CGSC, Yale University). E. coli JW3596, E. coli JW3024, E. coli JW3595, E. coli JW3606, E. coli JW0212, E. coli JW1667, E. coli JW0554, E. coli JW3605 and E. coli JW3600 are isogenic mutants of waaC, waaE, waaF, waaG, gmhA (lpcA), lpp, ompT, waaP, or waaY derived from the parental strain E. coli BW25113 and were ordered from the KEIO collection (Baba et al., [2006]). E. coli ATCC25922 is a clinical isolate, serotype O6, often used as control strain in antimicrobial susceptibility testing was ordered from the ATCC strain collection. All strains were grown in Mueller-Hinton-II medium and incubation took place aerobically at 37°C for 18–20 h.
(§2) The minimum inhibitory concentrations (MICs) of the AMPs were measured in 96-well microtiter plates according the Clinical and Laboratory Standards Institute [CLSI, formerly National Committee for Clinical Laboratory Standards (NCCLS)] (Wikler et al., [2009]). Liquid Mueller-Hinton-II medium containing increasing concentrations of AMPs is inoculated with a defined number of cells (~10^5 CFUs/ml) in 96-well microtiter plates (polypropylene). Each microtiter plate includes a positive growth control and a negative control (sterile control). After incubation, the minimal inhibitory concentration (MIC) is determined by the lowest concentration showing no visible growth. All plates were incubated for 16–20 h.

E. coli ATCC25922 ΔwaaE = type: cell-based, Escherichia coli; conditions: Table 6, triplicates
Text: as §1, §2

E. coli ATCC25922 ΔwaaF = type: cell-based, Escherichia coli; conditions: Table 6, triplicates
Text: as §1, §2

E. coli ATCC25922 ΔwaaG = type: cell-based, Escherichia coli; conditions: Table 6, triplicates
Text: as §1, §2

E. coli ATCC25922 = type: cell-based, Escherichia coli; conditions: Table 6; E. coli ATCC25922 wild-type; triplicates
Text: as §1, §2

S. typhimurium LT2 = test: MIC testing (CLSI broth microdilution); type: cell-based; conditions: Table 6, triplicates
Experimental: as §2

Y. ruckeri 392/2003 = test: MIC testing (CLSI broth microdilution); type: cell-based; conditions: Table 6, triplicates
Experimental: as §2

Row | Sequence | Antimicrobial activity: MIC (E. coli ATCC25922 ΔwaaC) [µg/mL] | Antimicrobial activity: MIC (E. coli ATCC25922 ΔwaaE) [µg/mL] | Antimicrobial activity: MIC (E. coli ATCC25922 ΔwaaF) [µg/mL] | Antimicrobial activity: MIC (E. coli ATCC25922 ΔwaaG) [µg/mL] | Antimicrobial activity: MIC (E. coli ATCC25922) [µg/mL] | Antimicrobial activity: MIC (S. typhimurium LT2) [µg/mL] | Antimicrobial activity: MIC (Y. ruckeri 392/2003) [µg/mL]
1 | GLRKRLRKFRNKHKEKLKKIGQKIQGLLPKLAPRTDY [I13H] | 2 | 2 | 2 | 2 | 4 | 4 | 8 to 16
2 | GLRKRPRKFRNKIKEKLKKIGQKIQGLLPKLAPRTDY [L6P] | 4 | 8 | 4 | 4 | 8 | 8 | 64
3 | GLRKRLRKFRNKIKEDLKKIGQKIQGLLPKLAPRTDY [K16D] | 2 | 8 | 2 | 4 | 4 | 4 | 4
4 | GLRKRLRKFRNKIKEKDKKIGQKIQGLLPKLAPRTDY [L17D] | ≥64 | ≥64 | ≥64 | ≥64 | ≥64 | ≥64 | ≥64
5 | GLRKRLRKFRNKIKECLKKIGQKIQGLLPKLAPRTDY [K16C] | 4 | 8 | 4 | 8 | 8 | 8 to 16 | 8 to 16
6 | GLRKRLRKFRNKDKEKLKKIGQKIQGLLPKLAPRTDY [I13D] | ≥64 | ≥64 | ≥64 | ≥64 | ≥64 | ≥64 | ≥64
7 | GLRKRLRKFRNKFKEKLKKIGQKIQGLLPKLAPRTDY [I13F] | 2 | 2 | 2 | 2 | 4 | 4 | 2
8 | GLRKRLRKFRNKIKEKLKKIGQKNQGLLPKLAPRTDY [I24N] | 8 | 16 | 8 | 16 | ≥64 | 32 | ≥64
9 | GLRKRLRKFRNKMKEKLKKIGQKIQGLLPKLAPRTDY [I13M] | 4 | 8 | 4 | 4 | 8 | 8 | 4
10 | GLRKRLRKFRNKIKEKLKKIGQKDQGLLPKLAPRTDY [I24D] | 16 | 16 | 16 | ≥64 | ≥64 | ≥64 | ≥64
11 | GLRKRLRKFRNKIKEKLKKIGQKIQTLLPKLAPRTDY [G26T] | 4 | 4 | 4 | 4 | 8 | 4 to 8 | 2 to 4
12 | GLRKRLRKFRNKIKEKLKKNGQKIQGLLPKLAPRTDY [I20N] | 16 | 16 | 8 | 16 | ≥64 | 8 to 16 | ≥64
13 | GLRKRLRKFRNKPKEKLKKIGQKIQGLLPKLAPRTDY [I13P] | 32 | 32 | 16 | 32 | ≥64 | 16 to 32 | ≥64
14 | GLRKRLRKFRNKIKEKLPKIGQKIQGLLPKLAPRTDY [K18P] | 2 | 4 | 4 | 4 | 8 | 4 | 32
15 | GLRKRLRKFRNKIKEKPKKIGQKIQGLLPKLAPRTDY [L17P] | ≥64 | ≥64 | ≥64 | ≥64 | ≥64 | ≥64 | ≥64
16 | GLRKRLRKFRNKRKEKLKKIGQKIQGLLPKLAPRTDY [I13R] | 32 | ≥64 | 16 | 8 | ≥64 | 16 to 32 | 32 to 64
